Measured values from ChEMBL document CHEMBL1201862, “PubChem BioAssay data set” (2004).
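Exposure lasted 48 hours, with cells grown in 96-well plates and compounds tested at five concentrations. Here, GI50 denotes the concentration required for 50% inhibition of growth.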 The source made the active and inactive calls. Cut-off read from the data, not from the text of the source: active = GI50 up to about 1.1 µM and inactive = higher.

Legend:
Test in all cases: DTP human tumour cell line panel, 48 h
[1] = test system: RPMI-8226
[2] = test system: HCT-116
[3] = test system: 786-0
[4] = test system: BT-549
[5] = test system: CAKI-1
[6] = test system: M14
[7] = test system: SR
[8] = test system: Malme-3M
[9] = test system: MCF7
[10] = test system: A498
[11] = test system: UACC-257
[12] = test system: NCI-H23
[13] = test system: NCI/ADR-RES
[14] = test system: SF-295
[15] = test system: MDA-MB-231
[16] = test system: SK-MEL-28
[17] = test system: HL-60
[18] = test system: NCI-H460
[19] = test system: SNB-75
[20] = test system: A549
[21] = test system: T47D
[22] = test system: OVCAR-4
[23] = test system: MDA-MB-435
[24] = test system: KM12
[25] = test system: COLO 205
[26] = test system: SN12C
[27] = test system: DU-145
[28] = test system: MDA-N
[29] = test system: OVCAR-3
[30] = test system: UACC-62
[31] = test system: PC-3
[32] = test system: IGROV-1
[33] = test system: CCRF-CEM
[34] = test system: HT-29
[35] = test system: ACHN
[36] = test system: SK-MEL-2
[37] = test system: HOP-62
[38] = test system: HCC 2998
[39] = test system: LOX IMVI
[40] = test system: NCI-H522
[41] = test system: TK-10
[42] = test system: SW-620
[43] = test system: MOLT-4
[44] = test system: OVCAR-8
[45] = test system: SF-268
[46] = test system: SNB-19
[47] = test system: U-251
[48] = test system: HOP-92
[49] = test system: Hs-578T
[50] = test system: OVCAR-5
[51] = test system: HCT-15
[52] = test system: UO-31
[53] = test system: SF-539
[54] = test system: EKVX
[55] = test system: SK-MEL-5

SMILES: Clc1c2nc3ccccc3c-2[nH]c2ccccc12
- GI50 [1]: 7.96 µM (inactive)
- GI50 [2]: 8.55 µM (inactive)
- GI50 [3]: 32.5 µM (inactive)
- GI50 [4]: 64.1 µM (inactive)
- GI50 [5]: 9.16 µM (inactive)
- GI50 [6]: 36.2 µM (inactive)
- GI50 [7]: 4.37 µM (inactive)
- GI50 [8]: 30.7 µM (inactive)
- GI50 [9]: 6.28 µM (inactive)
- GI50 [10]: 43 µM (inactive)
- GI50 [11]: 50.2 µM (inactive)
- GI50 [12]: 11.6 µM (inactive)
- GI50 [13]: 23.4 µM (inactive)
- GI50 [14]: < 0.01 µM (active)
- GI50 [15]: 11.7 µM (inactive)
- GI50 [16]: 52.4 µM (inactive)
- GI50 [17]: 15.6 µM (inactive)
- GI50 [18]: 27.2 µM (inactive)
- GI50 [19]: 39.9 µM (inactive)
- GI50 [20]: 34 µM (inactive)
- GI50 [21]: 17.7 µM (inactive)
- GI50 [22]: > 100 µM (inactive)
- GI50 [23]: 5.11 µM (inactive)
- GI50 [24]: 3.94 µM (inactive)
- GI50 [25]: 2.86 µM (inactive)
- GI50 [26]: 32.7 µM (inactive)
- GI50 [27]: 22 µM (inactive)
- GI50 [28]: 3.57 µM (inactive)
- GI50 [29]: 69.7 µM (inactive)
- GI50 [30]: 48.8 µM (inactive)
- GI50 [31]: 17.5 µM (inactive)
- GI50 [32]: 9.68 µM (inactive)
- GI50 [33]: 19.2 µM (inactive)
- GI50 [34]: 4.3 µM (inactive)
- GI50 [35]: 21.3 µM (inactive)
- GI50 [36]: > 100 µM (inactive)
- GI50 [37]: 47.1 µM (inactive)
- GI50 [38]: 24.5 µM (inactive)
- GI50 [39]: 11.7 µM (inactive)
- GI50 [40]: 20.1 µM (inactive)
- GI50 [41]: 98.4 µM (inactive)
- GI50 [42]: 8.83 µM (inactive)
- GI50 [43]: 2.9 µM (inactive)
- GI50 [44]: 29 µM (inactive)
- GI50 [45]: 64.3 µM (inactive)
- GI50 [46]: > 100 µM (inactive)
- GI50 [47]: 50.4 µM (inactive)
- GI50 [48]: > 100 µM (inactive)
- GI50 [49]: 33.7 µM (inactive)
- GI50 [50]: > 100 µM (inactive)
- GI50 [51]: 14.4 µM
- GI50 [52]: 7.98 µM (inactive)
- GI50 [53]: 13.7 µM (inactive)
- GI50 [54]: 10.6 µM (inactive)
- GI50 [55]: 3.95 µM (inactive)
